Measured values from publication PMC10321483 (Chemical Science, 2023).
Where “and” joins values, the source holds several entries; their conditions need not be identical. Equal values may be shown once. Read-outs that look alike come from different tables or passages of the source.

Columns and labels:
[1] = molecular target: T1, LdtMt2 (Mycobacterium tuberculosis, UniProt I6Y9J2); assay: biochemical; type: biochemical; design: made in house; host or cells: E. coli
[2] = molecular target: T1, LdtMt2; assay: biochemical; type: binding; design: made in house; host or cells: E. coli
Method: LdtMt2 (5 μM) was incubated with the inhibitor (500 μM) in assay buffer (50 mM tris pH 7.5) for 30 minutes at room temperature in 96-well white PCR plates (25 μL final volume, Starlab). SYPRO Orange (final concentration 6×, according to manufacturer's definition, Invitrogen) was then added and the plate was sealed using a transparent plastic film (Polyolefin StarSeal, Starlab). Fluorescence was monitored (with λex = 492 nm and λem = 610 nm) using a CFX96 Touch Real-Time PCR Detection System (Bio-Rad), while the temperature was increased from 20 to 95 °C in increments of 0.2 °C. Melting temperatures (Tms) were determined using the CFX Maestro Software (Bio-Rad).

[3] = molecular target: T1, LdtMt2; assay: Rate constant of covalent target inactivation (kinact/KI), endpoint competition assay with probe 2; type: biochemical; design: made in house; host or cells: E. coli; details: 100 nM LdtMt2, 10 µM probe 2, 3 h incubation; n=4
[4] = molecular target: T2, BlaC (Mycobacterium tuberculosis, UniProt P9WKD3); assay: BlaC fluorogenic inhibition assay with FC5 (dose-response); type: biochemical
T2 construct: made in house; host or cells: E. coli
Method: Two types of controls were used. […] In control 2, the BlaC mixture was substituted with the assay buffer. This mixture was incubated for 30 minutes at room temperature without shaking. […] Data were analysed using ActivityBase (IDBS).

[5] = Table S3 tool compounds, 10 min incubation, 2.5 nM BlaC, 2.5 µM FC5, n=4, read-out: pIC50 BlaC (mean ± SD) (converted)
[6] = Table S4 HTS validation, 30 minutes inhibitor pre-incubation, n=8, read-out: pIC50 BlaC (mean ± SD) (converted)
[7] = Table S4 HTS validation, 30 minutes inhibitor pre-incubation, n=6, read-out: pIC50 LdtMt2 (mean ± SD) (converted)
[8] = Table S5 HTS hits, 30 minute inhibitor pre-incubation, two independent repeats

T2 sequence (P9WKD3 35-307): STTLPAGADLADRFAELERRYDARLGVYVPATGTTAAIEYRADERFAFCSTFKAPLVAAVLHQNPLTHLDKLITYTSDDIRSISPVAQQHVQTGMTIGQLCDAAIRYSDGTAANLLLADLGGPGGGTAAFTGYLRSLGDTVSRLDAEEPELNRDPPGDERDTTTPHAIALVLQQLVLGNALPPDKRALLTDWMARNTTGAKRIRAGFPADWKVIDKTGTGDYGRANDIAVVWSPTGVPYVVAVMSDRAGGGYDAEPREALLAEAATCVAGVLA
T1 sequence (I6Y9J2 56-408): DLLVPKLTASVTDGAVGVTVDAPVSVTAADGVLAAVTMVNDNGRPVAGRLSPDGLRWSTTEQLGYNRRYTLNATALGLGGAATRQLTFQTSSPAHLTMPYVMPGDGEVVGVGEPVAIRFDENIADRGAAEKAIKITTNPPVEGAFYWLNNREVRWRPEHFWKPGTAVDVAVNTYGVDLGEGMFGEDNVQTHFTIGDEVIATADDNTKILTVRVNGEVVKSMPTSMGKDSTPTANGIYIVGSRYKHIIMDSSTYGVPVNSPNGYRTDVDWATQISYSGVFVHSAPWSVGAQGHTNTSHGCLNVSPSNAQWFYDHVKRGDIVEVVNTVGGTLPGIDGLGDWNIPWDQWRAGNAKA

Cc1ccc(C=CC(=O)N2CC(=O)Nc3ccccc32)o1 [Compound 10]
LE (ligand efficiency) [1]: 0.54

N#CSc1ccc([N+](=O)[O-])c(C(=O)O)c1 [Compound 44, 2-nitro-5-thiocyanobenzoic acid, reference compound]
IC50 ([1]; Table S10 known cyanating compounds, read-out: pIC50 LdtMt2 (converted)): 1.45 µM

N#CN1CCCN1C(=O)OCc1ccc(Cl)c(Cl)c1 [Compound 37]
LE (ligand efficiency) [1]: 0.59 | ΔTm: difference in melting point of LdtMt2 relative to unreacted LdtMt2 (43.8 °C) [2]: -1.5 | Tm: melting point of LdtMt2 after pre-incubation with the compound ([2]; pH 7.5, in °C (unit assumed)): 42.3 ± 0.09 | kinact/KI [3]: 8.44 ± 1.2 M⁻¹ s⁻¹

CC1(C)S[C@@H]2[C@H](NC(=O)[C@H](C(=O)O)c3ccsc3)C(=O)N2[C@H]1C(=O)O [Ticarcillin, reference compound]
IC50 [4, 5]: 11.7 µM | IC50 [4, 6]: 14.5 µM | IC50 [1, 7]: 44.7 µM | IC50 ([1]; pIC50 LdtMt2 (mean ± SD)): > 100 µM

Cc1ccccc1NC(=O)C=CC(N)=O [Compound 14]
pIC50 BlaC [4, 8]: < 4.0 | LE (ligand efficiency) [1]: 0.75 | ΔTm: difference in melting point of LdtMt2 relative to unreacted LdtMt2 (43.8 °C) [2]: +1.1 | Tm: melting point of LdtMt2 after pre-incubation with the compound ([2]; pH 7.5, in °C (unit assumed)): 44.9 ± 0.09

O=c1c2ccccc2[se]n1-c1ccccc1 [Ebselen]
IC50 [4, 5]: 1.51 µM | IC50 [4, 6]: 0.302 µM | IC50 [1, 7]: 0.214 µM

CC1(C)S[C@@H]2[C@H](NC(=O)C(C(=O)O)c3ccccc3)C(=O)N2[C@H]1C(=O)O (some centres unmarked) [Carbenicillin, reference compound]
IC50 [4, 5]: > 100 µM | IC50 ([1]; pIC50 LdtMt2 (mean ± SD)): > 100 µM

Cc1ccc(C=CC(=O)Nc2ccc(S(N)(=O)=O)cc2)o1 [Compound 9]
LE (ligand efficiency) [1]: 0.53 | Tm: melting point of LdtMt2 after pre-incubation with the compound ([2]; pH 7.5): 43.1 ± 0.09 °C | kinact/KI [3]: 90.7 ± 4.7 M⁻¹ s⁻¹

Cn1c(SCC2=C(C(=O)O)N3C(=O)[C@@H](NC(=O)COc4ccccc4)[C@H]3SC2)n[nH]c1=O [Compound 19]
IC50 ([4]; Table S5 HTS hits, 30 minute inhibitor pre-incubation, two independent repeats, read-out: pIC50 BlaC (converted)): > 100 µM | LE (ligand efficiency) ([1]; Table S5, for LdtMt2): 0.35 | IC50 ([1]; Table S5 HTS hits, 30 minute inhibitor pre-incubation, two independent repeats, read-out: pIC50 LdtMt2 (converted)): 2.4 µM and 2.4 to 2.82 µM | Tm: melting point of LdtMt2 after pre-incubation with the compound ([2]; 5 µM LdtMt2, 500 µM inhibitor, SYPRO Orange, 50 mM Tris pH 7.5): 42.9 ± 0.09 °C | ΔTm at 500 µM ([2]; read-out: ΔTm: difference in melting point of LdtMt2 relative to unreacted LdtMt2 (43.8 °C)): -0.9 °C

CNC(C)C(=O)NC1CCN(c2ccc(N3CCCC3)cc2C#N)C1 (centres unmarked) [Compound 38]
pIC50 BlaC [4, 8]: < 4.0 | LE (ligand efficiency) [1]: 0.45 | ΔTm: difference in melting point of LdtMt2 relative to unreacted LdtMt2 (43.8 °C) [2]: -1.0 | Tm: melting point of LdtMt2 after pre-incubation with the compound ([2]; pH 7.5, in °C (unit assumed)): 42.8 ± 0.00

N#Cn1ccnc1 [Compound 41, reference compound]
pIC50 LdtMt2 [1]: 6.54 ± 0.01

N#Cn1c(N2CCSCC2)nc2ccccc21 [Compound 27]
pIC50 BlaC [4, 8]: < 4.0 | LE (ligand efficiency) [1]: 0.66 | ΔTm: difference in melting point of LdtMt2 relative to unreacted LdtMt2 (43.8 °C) [2]: -1.3 | Tm: melting point of LdtMt2 after pre-incubation with the compound ([2]; pH 7.5, in °C (unit assumed)): 42.5 ± 0.09

O=C(NC1CCNCC1)[C@@H]1CC[C@@H]2CN1C(=O)N2OS(=O)(=O)O [Relebactam]
IC50 [4, 5]: 33.1 µM | IC50 [4, 6]: 3.98 µM | IC50 ([1]; pIC50 LdtMt2 (mean ± SD)): > 100 µM

N#Cn1c(-c2ccc3nccnc3c2)nc2ccccc21 [Compound 26]
LE (ligand efficiency) [1]: 0.53 | lowered the melting temperature of LdtMt2 by [2]: 2.1 °C | ΔTm: difference in melting point of LdtMt2 relative to unreacted LdtMt2 (43.8 °C) [2]: -2.1 | Tm: melting point of LdtMt2 after pre-incubation with the compound ([2]; pH 7.5, in °C (unit assumed)): 41.7 ± 0.09 | kinact/KI [3]: 65.0 ± 4.4 M⁻¹ s⁻¹

C[C@@H](O)[C@H]1C(=O)N2C(C(=O)O)=C([C@H]3CCCO3)S[C@H]12 [Faropenem]
IC50 [4, 5]: 0.447 µM | IC50 [4, 6]: 0.468 µM

CN(C)c1cc[n+](C#N)cc1 [Compound 43, 1-cyano-4-dimethylaminopyridinium tetrafluoroborate, reference compound]
IC50 ([1]; pIC50 LdtMt2): 5.01 µM

CCC(C)SSc1ncc[nH]1 (centres unmarked) [PX-12, reference compound]
pIC50 BlaC (mean ± SD) ([4]; Table S3 tool compounds, 10 min incubation, 2.5 nM BlaC, 2.5 µM FC5, n=4): < 4.0 | pIC50 LdtMt2 (mean ± SD) [1]: 5.9 ± 0.01 and 6.09 ± 0.03

C[C@@H](O)[C@H]1C(=O)N2C(C(=O)[O-])=C(SC3Cn4cnc[n+]4C3)[C@H](C)[C@H]12 (some centres unmarked) [Biapenem, reference compound]
IC50 [4, 5]: 3.09 µM | IC50 [4, 6]: 0.479 µM | IC50 [1, 7]: 2.88 µM | IC50 ([1]; pIC50 LdtMt2 (mean ± SD)): 79.4 µM
